Measurements: patent publication US8916604B2, “Compositions and methods for epigenetic modification of nucleic acid sequences” (Rutgers, The State University of New Jersey, priority 2011, dated 2014)
Where two headings read alike, the source gives them in different places.

Experiments:
NQO1 = assay: qPCR mRNA expression in HepG2-C8 cells; assay type: cell-based, human; conditions: 6 h
Method: (§1) The cells were treated similarly to the NITS and ARE-luciferase assays described above using 10% FBS medium. The incubation of the compounds with the cells was terminated 6 h later. The mRNA expression was evaluated utilizing a quantitative real-time polymerase chain reaction (qPCR). An RNeasy kit from Qiagen was used for RNA extraction (Valencia, Calif.). The total RNA was reverse-transcribed to cDNA by TaqMan Reverse Transcription Reagents (Applied Biosystems Inc, Foster City, Calif.). SYBR Green (Applied Biosystems Inc, Foster City, Calif.) fluorescence was used to measure the product of qPCR. Glyceraldehyde 3-phosphate dehydrogenase (GAPDH) was used as the housekeeping gene, and the Applied Biosystems 7900HT Fast Real-Time PCR System (Applied Biosystems Inc, Foster City, Calif.) was used as described previously (Saw et al., Biochem Pharmacol 2010; 79: 421-430) to detect quantitatively the induction of mRNA of Nrf2, phase II DME GSTm2, NAD (P)H dehydrogenase, quinone 1 (NQO1), UGT family, polypeptide A1 (UGT1A1) and antioxidant enzymes HO-1, superoxide dismutase 1 (SOD1). The primer pairs were designed using the Primer Quest Oligo Design and Analysis Tool by Integrated DNA Technologies Inc. (Coralville, Iowa, USA) and the sequences are listed in Table 4. At least four wells of each treatment were performed and duplicate samples were carried out for each treatment.

HepG2-C8 cells = assay: MTS cell viability assay; assay type: cell-based, human
Method: The stably transfected single clone HepG2-ARE-C8 (HepG2-C8) cell line has been established previously in our laboratory using the […]-luciferase reporter gene. The cells were maintained in Dulbecco's modified Eagle medium supplemented with 10% fetal bovine serum (FBS), 1.17 g/l sodium bicarbonate, and 100 unit/ml penicillin, 100 μg/ml streptomycin at 37° C. in a humidified incubator with 5% CO2. […] MTS] (Promega, Madison, Wis.). […] The cells were then treated with MTS for 1 h at 37° C. Absorbance of the formazan product was read at 490 nm with a μQuant Biomolecular Spectrophotometer from Bio-Tek Instruments Inc. (Winooski, Vt.). Independent control studies were conducted using 1% and 10% FBS medium.

[1] = test system: first 5 CpGs in the promoter region of Nrf2 gene; conditions: TRAMP C1 cells, other DNA de-methylating agents; cited from earlier work
[2] = test system: antioxidant response element (ARE); assay: ARE-luciferase reporter assay with combination index calculation; assay type: cell-based, human
Method: The stably transfected single clone HepG2-ARE-C8 (HepG2-C8) cell line has been established previously in our laboratory using the […]-luciferase reporter gene. The cells were maintained in Dulbecco's modified Eagle medium supplemented with 10% fetal bovine serum (FBS), 1.17 g/l sodium bicarbonate, and 100 unit/ml penicillin, 100 μg/ml streptomycin at 37° C. in a humidified incubator with 5% CO2. The HepG2-C8 cells were cultured in 12-well plates and each well contained 1 million cells in 1 ml of 10% FRS medium. The cells were treated with compounds for 24 h. The luciferase activity was determined using a luciferase kit from Promega (Madison, USA) according to the manufacturer's instructions. Briefly, after treatments for 24 h, the cells were washed twice with ice-cold phosphate buffered-saline (PBS, pH 7.4) and harvested in 1× reporter lysis buffer and […]. After centrifugation at 4° C., 12000 rpm for 5 min, a 10 μl aliquot of the supernatant was assayed for luciferase activity with a Sirius luminometer (Berthold Detection System GmbH, Pforzheim, Germany). The luciferase activity was normalized against protein concentration, determined by a BCA protein assay (Pierce, Rockford, USA), and expressed as the fold induction over the luciferase activity of control vehicle-treated cells. At least two to three independent studies were conducted in triplicates. To determine the synergistic effect between the combination of two different compounds, the combination index (CI) was calculated with the following formula: […] This approach is based on the Loewe additivity model and although the exact mechanism of interaction may be unknown, this model is one of the most commonly used reference models for evaluating potential drug-drug interactions Lee et al., J Biopharm Stat 2007; 17: 461-480).

[3] = oral; cited from earlier work
HO-1 = assay: qPCR mRNA expression in HepG2-C8 cells; assay type: cell-based, human; conditions: 25 μM, 6 h, vs 0.1% DMSO
Method: as §1

Nrf2 = assay: qPCR mRNA expression in HepG2-C8 cells; assay type: cell-based, human; conditions: 25 μM, 6 h, vs 0.1% DMSO
Method: as §1

[4] = Homo sapiens, HepG2C8, 1% FBS medium, read-out: cell viability inhibitory concentrations (IC50)

SMILES: S=C=NCCc1ccccc1 [PEITC, phenethyl isothiocyanate]
- NQO1 gene expression (NQO1; 1 μM): greatly induced
- IC50 (HepG2-C8 cells; [4]): ~20 µM

SMILES: COc1cc(/C=C/C(=O)CC(=O)/C=C/c2ccc(O)c(OC)c2)ccc1O [curcumin]
- CpG methylation of the first 5 CpGs of the promoter of Nrf2 gene [1]: decreased CpG methylation

SMILES: C[S+]([O-])CCCCN=C=S (stereo not drawn) [SFN, sulforaphane]
- NQO1 gene expression (NQO1; any concentration): not significantly induced
- IC50 (HepG2-C8 cells; [4]): ~20 µM
- time of peak induction of ARE-luciferase activity ([2]; time course study, after treatment): 18 h

SMILES: OCc1c[nH]c2ccccc12 [I3C, indole-3-carbinol]
- tolerability [3]: well tolerated
- HO-1 mRNA induction over control (HO-1): did not show significant induction
- Nrf2 mRNA induction over control (Nrf2): did not show significant induction
- IC50 (HepG2-C8 cells; 1% FBS medium, read-out: cell viability inhibitory concentrations (IC50)): 135 µM
- IC50 (HepG2-C8 cells; 10% FBS medium (data not shown), read-out: cell viability IC50): 300 µM
- induction of ARE-luciferase ([2]; doses lower than 25 μM, 10% FBS medium (data not shown)): no significant induction
